Results: the NIST ThermoML archive (doi:10.1016/j.jct.2010.01.016)
Numbers after ± are expanded uncertainties.

Key:
[1] = excess molar enthalpy (molar enthalpy of mixing); xn = mol fraction of the nth substance listed; conditions: 303.15 K, 101 kPa, Liquid, Calvet calorimetry
[2] = Liquid; for vapor or sublimation pressure: Closed cell (Static) method; for mass density: 298.15 K, 101.33 kPa, Vibrating tube method

CCN(CC)CCCN [N,N-diethylpropane-1,3-diamine] + C1CCCCC1
[1]
Conditions | excess molar enthalpy [kcal/mol]
x1 = 0.1022 | 0.141 ± 0.00574
x1 = 0.2027 | 0.209 ± 0.0086
x1 = 0.3028 | 0.245 ± 0.01
x1 = 0.3197 | 0.247 ± 0.01
x1 = 0.3519 | 0.251 ± 0.0103
x1 = 0.3953 | 0.255 ± 0.0105
x1 = 0.407 | 0.257 ± 0.0105
x1 = 0.4449 | 0.257 ± 0.0105
x1 = 0.4943 | 0.254 ± 0.0103
x1 = 0.5061 | 0.255 ± 0.0103
x1 = 0.5307 | 0.248 ± 0.01
x1 = 0.5351 | 0.248 ± 0.01
x1 = 0.5595 | 0.243 ± 0.0098
x1 = 0.5741 | 0.239 ± 0.0098
x1 = 0.6073 | 0.228 ± 0.00932
x1 = 0.6523 | 0.21 ± 0.0086
x1 = 0.7017 | 0.187 ± 0.00765
x1 = 0.7997 | 0.131 ± 0.00526
x1 = 0.8696 | 0.0837 ± 0.00335

CCN(CC)CCCN [N,N-diethylpropane-1,3-diamine]
[2]
Conditions | vapor or sublimation pressure [kPa]
273.15 K | 0.031 ± 0.001
283.15 K | 0.073 ± 0.002
293.15 K | 0.155 ± 0.004
303.15 K | 0.31 ± 0.007
313.15 K | 0.586 ± 0.013
323.15 K | 1.053 ± 0.023
333.15 K | 1.809 ± 0.015
343.15 K | 2.987 ± 0.022
353.15 K | 4.759 ± 0.033
363.15 K | 7.346 ± 0.049

Conditions | mass density [kg/m3]
[2] | 821.363 ± 0.3

C1CCCCC1 [cyclohexane]
[2]
Conditions | vapor or sublimation pressure [kPa]
273.15 K | 3.726 ± 0.028
283.15 K | 6.352 ± 0.044
293.15 K | 10.36 ± 0.07
303.15 K | 16.26 ± 0.11
313.15 K | 24.65 ± 0.16
323.15 K | 36.24 ± 0.23
333.15 K | 51.85 ± 0.33
343.15 K | 72.4 ± 0.46
353.15 K | 98.87 ± 0.63
363.15 K | 132.35 ± 0.84

Conditions | mass density [kg/m3]
[2] | 774.1 ± 0.3
